Measured values taken from PubChem BioAssay AID1645861 (Buhrlage Lab, Dana-Farber Cancer Institute and Novartis …, 2021).
Activity calls are given as the source filed them.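 The calls were made as follows: active = compounds whose peak USP7 inhibition across the dose series reached 30% or more; inactive = the rest.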

Biological target: Ubiquitin carboxyl-terminal hydrolase 7 (Homo sapiens) (UniProt Q93009)
Assay: Ubiquitin-specific protease 7 DUB inhibitors, concentration-effect, biochemical, validation of primary hits (AID 1645861)
Settings: purified USP7, Ub-rhodamine cleavage fluorescence, 60 min

Chain of Ubiquitin carboxyl-terminal hydrolase 7 (Homo sapiens) (Q93009 whole entry, looked up): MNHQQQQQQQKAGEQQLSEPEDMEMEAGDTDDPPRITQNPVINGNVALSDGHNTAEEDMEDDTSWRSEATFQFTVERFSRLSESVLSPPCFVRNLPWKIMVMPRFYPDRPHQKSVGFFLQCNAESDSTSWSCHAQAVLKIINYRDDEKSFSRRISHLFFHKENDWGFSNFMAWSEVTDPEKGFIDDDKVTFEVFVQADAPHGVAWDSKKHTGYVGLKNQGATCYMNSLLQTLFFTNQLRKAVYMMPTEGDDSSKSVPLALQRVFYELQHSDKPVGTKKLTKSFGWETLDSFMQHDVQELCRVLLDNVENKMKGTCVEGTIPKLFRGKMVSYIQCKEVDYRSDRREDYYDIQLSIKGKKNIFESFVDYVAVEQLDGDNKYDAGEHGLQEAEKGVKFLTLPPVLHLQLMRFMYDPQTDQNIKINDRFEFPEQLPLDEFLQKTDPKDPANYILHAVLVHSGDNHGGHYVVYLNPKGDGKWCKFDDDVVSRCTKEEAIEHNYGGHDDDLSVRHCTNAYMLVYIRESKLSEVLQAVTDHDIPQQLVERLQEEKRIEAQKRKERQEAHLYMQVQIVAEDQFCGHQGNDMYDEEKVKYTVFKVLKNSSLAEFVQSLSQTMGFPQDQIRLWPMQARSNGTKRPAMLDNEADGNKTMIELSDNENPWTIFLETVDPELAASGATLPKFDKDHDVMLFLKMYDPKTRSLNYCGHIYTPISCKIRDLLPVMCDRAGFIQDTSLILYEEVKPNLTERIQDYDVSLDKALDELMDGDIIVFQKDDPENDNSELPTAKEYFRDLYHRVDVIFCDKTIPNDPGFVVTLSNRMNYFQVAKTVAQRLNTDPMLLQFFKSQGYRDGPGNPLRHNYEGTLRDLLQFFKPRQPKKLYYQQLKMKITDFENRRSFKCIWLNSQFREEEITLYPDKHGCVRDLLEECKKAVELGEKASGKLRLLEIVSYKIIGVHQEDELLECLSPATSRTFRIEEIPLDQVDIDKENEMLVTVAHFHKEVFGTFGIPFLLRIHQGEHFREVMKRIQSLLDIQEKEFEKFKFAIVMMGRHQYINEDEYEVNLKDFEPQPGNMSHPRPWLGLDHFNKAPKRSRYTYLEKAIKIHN

IC50 | SMILES
> 50 µM (inactive) | O=C(NCc1ccc(F)cc1)c1cccc(Nc2nc3ccccc3n3cnnc23)c1
16.8 µM | COc1cc(O)c2c(O)c3c(cc2c1)C[C@@]1(O)CC(=O)C(C(N)=O)=C(O)[C@@]1(O)C3=O
14.7 µM | CCCCCCCCCCCC1=C(O)C(=O)C=C(O)C1=O
9 µM | Cc1ccc(NCc2cc3c(-c4cccc(F)c4)nn(-c4ccccc4)c3[nH]c2=O)cc1C
36.4 µM | CC(=O)NS(=O)(=O)c1ccc(NC(=O)/C=C/c2cn(-c3ccccc3)nc2-c2ccccc2)cc1
> 50 µM (inactive) | COc1cccc(C(=O)Nc2ccc(SC(C)C(=O)Nc3ccc(C(N)=O)cc3)cc2)c1 (stereo not given)
> 50 µM (inactive) | COC(=O)c1ccc2c(=O)n(CCCCCC(=O)NCCc3ccc(S(N)(=O)=O)cc3)c(=O)[nH]c2c1
> 50 µM (inactive) | COc1cc(O)cc2c1C(=O)OC(C)CCCCCCC2 (stereo not given)
> 50 µM (inactive) | COc1cc(OC)cc(N2C(=O)N(CC(=O)c3ccc(Br)cc3)c3ccccc3S2(=O)=O)c1
46.4 µM | Cn1nc(Cl)c(Cl)c1Oc1ccc(S(=O)(=O)Nc2ccc(Oc3ccc(C(F)(F)F)cn3)c(Cl)c2)cc1
> 50 µM (inactive) | CC(C)c1ccc(NC(=O)c2cc(-c3cccnc3)n[nH]2)cc1
> 50 µM (inactive) | Cc1ccc(CNC(=O)Cn2c(=O)n(CCCC(=O)NCc3ccc(F)cc3)c(=O)c3ccccc32)cc1
> 50 µM (inactive) | CCOc1ccc(-c2noc(-c3nn(-c4cccc(OC)c4)ccc3=O)n2)cc1
> 50 µM (inactive) | CCn1cc2c(n1)c(=O)n(Cc1ccccc1)c(=O)n2CC(=O)Nc1ccc(OC)cc1

SMILES | IC50
CC(C)=CCOC(C)(C)[C@H]1OC2CC[C@@]3(C)C(CCC4Cc5c([nH]c6ccccc56)[C@@]43C)C23OC3[C@@H]1O (stereo not given in full) | 37.7 µM
